Assay results taken from ChEMBL document CHEMBL1201862, “PubChem BioAssay data set” (2004).
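How tested: cells in 96-well plates exposed to compound for 48 hours at five concentrations. GI50 = concentration required for 50% inhibition of growth.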 Active and inactive are the calls of the source. Rule as the data show it: active = GI50 up to about 1.1 µM and inactive = higher.

How the values were obtained:
Experiment in all cases: NCI tumour cell line growth inhibition, 48 h
786-0 = system: 786-0
A498 = system: A498
A549 = system: A549
ACHN = system: ACHN
CAKI-1 = system: CAKI-1
CCRF-CEM = system: CCRF-CEM
COLO 205 = system: COLO 205
DU-145 = system: DU-145
EKVX = system: EKVX
HCT-116 = system: HCT-116
HCT-15 = system: HCT-15
HL-60 = system: HL-60
HOP-62 = system: HOP-62
HOP-92 = system: HOP-92
HT-29 = system: HT-29
Hs-578T = system: Hs-578T
IGROV-1 = system: IGROV-1
K562 = system: K562
KM12 = system: KM12
LOX IMVI = system: LOX IMVI
M14 = system: M14
MCF7 = system: MCF7
MDA-MB-231 = system: MDA-MB-231
MDA-MB-435 = system: MDA-MB-435
MDA-N = system: MDA-N
MOLT-4 = system: MOLT-4
Malme-3M = system: Malme-3M
NCI-H226 = system: NCI-H226
NCI-H23 = system: NCI-H23
NCI-H460 = system: NCI-H460
NCI-H522 = system: NCI-H522
NCI/ADR-RES = system: NCI/ADR-RES
OVCAR-3 = system: OVCAR-3
OVCAR-4 = system: OVCAR-4
OVCAR-5 = system: OVCAR-5
OVCAR-8 = system: OVCAR-8
PC-3 = system: PC-3
RPMI-8226 = system: RPMI-8226
RXF 393 = system: RXF 393
SF-268 = system: SF-268
SF-295 = system: SF-295
SF-539 = system: SF-539
SK-MEL-28 = system: SK-MEL-28
SK-MEL-2 = system: SK-MEL-2
SK-MEL-5 = system: SK-MEL-5
SK-OV-3 = system: SK-OV-3
SN12C = system: SN12C
SNB-19 = system: SNB-19
SNB-75 = system: SNB-75
SR = system: SR
SW-620 = system: SW-620
TK-10 = system: TK-10
U-251 = system: U-251
UACC-257 = system: UACC-257
UACC-62 = system: UACC-62
UO-31 = system: UO-31
HCC 2998 = system: HCC 2998
T47D = system: T47D

## CCOc1c2c(cc3c1C(=O)c1c(OC)cccc1C3=O)C=C(OC)CC2
786-0
  GI50: > 25 µM (inactive)
A498
  GI50: > 25 µM (inactive)
A549
  GI50: 13.5 µM (inactive)
ACHN
  GI50: > 25 µM (inactive)
CAKI-1
  GI50: > 25 µM (inactive)
CCRF-CEM
  GI50: 7.8 µM (inactive)
COLO 205
  GI50: 21.6 µM (inactive)
DU-145
  GI50: > 25 µM (inactive)
EKVX
  GI50: > 25 µM (inactive)
HCT-116
  GI50: 17.4 µM (inactive)
HCT-15
  GI50: 11.9 µM
HL-60
  GI50: 5.62 µM (inactive)
HOP-62
  GI50: > 25 µM (inactive)
HOP-92
  GI50: > 25 µM (inactive)
HT-29
  GI50: 10.3 µM (inactive)
Hs-578T
  GI50: > 25 µM (inactive)
IGROV-1
  GI50: 15.2 µM (inactive)
K562
  GI50: 6.87 µM (inactive)
KM12
  GI50: 10.6 µM (inactive)
LOX IMVI
  GI50: 16.8 µM (inactive)
M14
  GI50: 18.8 µM (inactive)
MCF7
  GI50: 24.4 µM (inactive)
MDA-MB-231
  GI50: > 25 µM (inactive)
MDA-MB-435
  GI50: 8.04 µM (inactive)
MDA-N
  GI50: 6.49 µM (inactive)
MOLT-4
  GI50: 8.71 µM (inactive)
Malme-3M
  GI50: 13.6 µM (inactive)
NCI-H226
  GI50: > 25 µM (inactive)
NCI-H23
  GI50: > 25 µM (inactive)
NCI-H460
  GI50: 13.3 µM (inactive)
NCI-H522
  GI50: 10.4 µM (inactive)
NCI/ADR-RES
  GI50: 23.2 µM (inactive)
OVCAR-3
  GI50: > 25 µM (inactive)
OVCAR-4
  GI50: > 25 µM (inactive)
OVCAR-5
  GI50: > 25 µM (inactive)
OVCAR-8
  GI50: > 25 µM (inactive)
PC-3
  GI50: 17.8 µM (inactive)
RPMI-8226
  GI50: 7.24 µM (inactive)
RXF 393
  GI50: 12 µM (inactive)
SF-268
  GI50: > 25 µM (inactive)
SF-295
  GI50: 10.7 µM (inactive)
SF-539
  GI50: > 25 µM (inactive)
SK-MEL-28
  GI50: > 25 µM (inactive)
SK-MEL-2
  GI50: > 25 µM (inactive)
SK-MEL-5
  GI50: 10.1 µM (inactive)
SK-OV-3
  GI50: > 25 µM (inactive)
SN12C
  GI50: > 25 µM (inactive)
SNB-19
  GI50: > 25 µM (inactive)
SNB-75
  GI50: 8.28 µM (inactive)
SR
  GI50: 7.45 µM (inactive)
SW-620
  GI50: 9.98 µM (inactive)
TK-10
  GI50: > 25 µM (inactive)
U-251
  GI50: 22.3 µM (inactive)
UACC-257
  GI50: > 25 µM (inactive)
UACC-62
  GI50: 10.3 µM (inactive)
UO-31
  GI50: 10.9 µM (inactive)

## c1ccc(COC[C@H]2O[C@@H](c3ccccc3)C[C@@H](OCc3ccccc3)C2OCc2ccccc2)cc1 (stereo partly drawn)
786-0
  GI50: > 10 µM (inactive)
A549
  GI50: > 10 µM (inactive)
CAKI-1
  GI50: > 10 µM (inactive)
CCRF-CEM
  GI50: > 10 µM (inactive)
COLO 205
  GI50: > 10 µM (inactive)
DU-145
  GI50: > 10 µM (inactive)
EKVX
  GI50: > 10 µM (inactive)
HCC 2998
  GI50: > 10 µM (inactive)
HCT-15
  GI50: > 10 µM
HOP-62
  GI50: > 10 µM (inactive)
IGROV-1
  GI50: > 10 µM (inactive)
KM12
  GI50: > 10 µM (inactive)
M14
  GI50: > 10 µM (inactive)
MCF7
  GI50: > 10 µM (inactive)
MDA-MB-231
  GI50: > 10 µM (inactive)
MDA-N
  GI50: > 10 µM (inactive)
MOLT-4
  GI50: > 10 µM (inactive)
Malme-3M
  GI50: > 10 µM (inactive)
NCI-H23
  GI50: > 10 µM (inactive)
OVCAR-8
  GI50: > 10 µM (inactive)
PC-3
  GI50: > 10 µM (inactive)
RPMI-8226
  GI50: > 10 µM (inactive)
RXF 393
  GI50: > 10 µM (inactive)
SF-268
  GI50: > 10 µM (inactive)
SF-295
  GI50: > 10 µM (inactive)
SK-MEL-28
  GI50: > 10 µM (inactive)
SK-MEL-5
  GI50: > 10 µM (inactive)
SK-OV-3
  GI50: > 10 µM (inactive)
SN12C
  GI50: > 10 µM (inactive)
SNB-75
  GI50: > 10 µM (inactive)
SR
  GI50: > 10 µM (inactive)
SW-620
  GI50: > 10 µM (inactive)
T47D
  GI50: > 10 µM (inactive)
TK-10
  GI50: > 10 µM (inactive)
UACC-62
  GI50: > 10 µM (inactive)

## Cc1cccc(C(O)c2ccncc2)c1O (stereo not drawn)
A549
  GI50: > 100 µM (inactive)
ACHN
  GI50: > 100 µM (inactive)
CCRF-CEM
  GI50: > 100 µM (inactive)
DU-145
  GI50: > 100 µM (inactive)
EKVX
  GI50: > 100 µM (inactive)
HCC 2998
  GI50: > 100 µM (inactive)
HCT-116
  GI50: > 100 µM (inactive)
HCT-15
  GI50: > 100 µM
HL-60
  GI50: > 100 µM (inactive)
HOP-62
  GI50: > 100 µM (inactive)
Hs-578T
  GI50: > 100 µM (inactive)
K562
  GI50: > 100 µM (inactive)
KM12
  GI50: > 100 µM (inactive)
LOX IMVI
  GI50: > 100 µM (inactive)
M14
  GI50: > 100 µM (inactive)
MOLT-4
  GI50: > 100 µM (inactive)
NCI-H226
  GI50: > 100 µM (inactive)
NCI-H23
  GI50: > 100 µM (inactive)
NCI-H522
  GI50: > 100 µM (inactive)
NCI/ADR-RES
  GI50: > 100 µM (inactive)
OVCAR-3
  GI50: > 100 µM (inactive)
OVCAR-8
  GI50: > 100 µM (inactive)
PC-3
  GI50: > 100 µM (inactive)
RXF 393
  GI50: 91.6 µM (inactive)
SF-268
  GI50: > 100 µM (inactive)
SF-295
  GI50: > 100 µM (inactive)
SF-539
  GI50: > 100 µM (inactive)
SK-MEL-5
  GI50: > 100 µM (inactive)
SN12C
  GI50: > 100 µM (inactive)
SNB-19
  GI50: > 100 µM (inactive)
SNB-75
  GI50: 76.6 µM (inactive)
T47D
  GI50: 12.6 µM (inactive)
U-251
  GI50: > 100 µM (inactive)
UACC-257
  GI50: > 100 µM (inactive)
UACC-62
  GI50: 25.8 µM (inactive)
UO-31
  GI50: > 100 µM (inactive)

## CC(=O)CCC(=O)CC(O)(C(F)(F)F)C(F)(F)F
786-0
  GI50: 16.2 µM (inactive)
A498
  GI50: 5.01 µM (inactive)
A549
  GI50: 20.6 µM (inactive)
ACHN
  GI50: 24.8 µM (inactive)
CCRF-CEM
  GI50: 21.6 µM (inactive)
COLO 205
  GI50: 17.9 µM (inactive)
DU-145
  GI50: 20.5 µM (inactive)
EKVX
  GI50: > 10 µM (inactive)
HCC 2998
  GI50: 18.4 µM (inactive)
HCT-116
  GI50: 16.9 µM (inactive)
HCT-15
  GI50: 20.1 µM
HL-60
  GI50: 18.5 µM (inactive)
HOP-62
  GI50: 17.9 µM (inactive)
HOP-92
  GI50: 13.6 µM (inactive)
HT-29
  GI50: 17.8 µM (inactive)
Hs-578T
  GI50: 14.6 µM (inactive)
IGROV-1
  GI50: 15.4 µM (inactive)
K562
  GI50: 15.3 µM (inactive)
KM12
  GI50: 15.9 µM (inactive)
M14
  GI50: 19.9 µM (inactive)
MCF7
  GI50: 18.8 µM (inactive)
MDA-MB-231
  GI50: 19.2 µM (inactive)
MDA-MB-435
  GI50: 19.4 µM (inactive)
MOLT-4
  GI50: 17.9 µM (inactive)
Malme-3M
  GI50: 16.7 µM (inactive)
NCI-H226
  GI50: 11.6 µM (inactive)
NCI-H23
  GI50: 21.2 µM (inactive)
NCI-H460
  GI50: 20.7 µM (inactive)
NCI/ADR-RES
  GI50: 25.3 µM (inactive)
OVCAR-4
  GI50: 19.7 µM (inactive)
OVCAR-5
  GI50: 12.9 µM (inactive)
OVCAR-8
  GI50: 19.6 µM (inactive)
RPMI-8226
  GI50: 17.2 µM (inactive)
RXF 393
  GI50: 18.6 µM (inactive)
SF-268
  GI50: 22.3 µM (inactive)
SF-295
  GI50: 12.4 µM (inactive)
SF-539
  GI50: 16.6 µM (inactive)
SK-MEL-28
  GI50: 22.7 µM (inactive)
SK-MEL-5
  GI50: 18.1 µM (inactive)
SK-OV-3
  GI50: > 10 µM (inactive)
SN12C
  GI50: 20.9 µM (inactive)
SNB-19
  GI50: 15.9 µM (inactive)
SNB-75
  GI50: 27.5 µM (inactive)
SR
  GI50: 16.4 µM (inactive)
SW-620
  GI50: 21.6 µM (inactive)
T47D
  GI50: 11.4 µM (inactive)
TK-10
  GI50: 22.6 µM (inactive)
U-251
  GI50: 17.2 µM (inactive)
UACC-257
  GI50: 17.8 µM (inactive)
UACC-62
  GI50: 16.8 µM (inactive)
UO-31
  GI50: 14.5 µM (inactive)
